Assay results: patent publication US9340533B2, “1,4-benzothiazepine-1-oxide derivative and pharmaceutical composition utilizing the same” (priority 2009, dated 2016)

Columns and labels:
Male Wistar rats [1] = assay: Comparison of heart rate, LV pressure and LV diastolic function (-dP/dt) in anesthetized rats; type: in vivo, rat; details: for Heart rate after administration / LV diastolic function (−dP/dt) after administration / LV pressure after administration: 0.3 mg/kg/min i.v. for 5 minutes, anesthetized rats; for LV diastolic function (−dP/dt) before administration / LV pressure before administration / Heart rate before administration: baseline of the same rats before infusion; for Heart rate before administration: four rats per group
Description: Male Wistar rats weighing 280-300 g were bred. After one week, animals were anesthetized with 3% isoflurane inhalation and respiration was subsequently controlled with an artificial ventilator using 1.7% isoflurane for maintained anesthetization. A micronanometer-tipped pressure catheter (2F, Millar Instruments) was inserted from the right common carotid artery into the left ventricle (LV) and a polyethylene catheter (SP10) for solution injection was inserted from the right femoral vein and the compounds [III] and [II] (R═H) were injected. After confirming stable hemodynamics for 10 minutes, heart rate, LV pressure, and maximal negative first derivative of LV pressure (−dP/dt) were investigated continuously. Each compound [III] or [II] was infused at 0.3 mg/kg/min for 5 minutes. Four rats in each group were evaluated. The solvent used consisted of 0.05% citric acid and 5% sorbitol. Each parameter before and after 5 minutes of administration was determined for 20 heart beats.

normal rat = assay: LV diastolic function in normal rat (LV catheter, i.v. infusion); type: in vivo; details: 0.1 mg/kg/min i.v. infusion for 10 minutes, before administration set at 100%, mean and standard deviation
Description: (1) After breeding for 1 week, male Wistar rats were anesthetized with 3% isoflurane inhalation, followed by an insertion of a tube in the trachea and respiration subsequently controlled with an artificial ventilator using 1.7% isoflurane for maintained anesthetization. A micrometer-tipped pressure catheter (Manufactured by 2F, Millar Instruments) was inserted from the right common carotid artery into the left ventricle (LV) and a polyethylene catheter (SP10) was inserted into the right femoral vein for the compound of the present invention or physiological salt solution (PSS) injections. After confirming stable hemodynamics for 10 minutes, LV minimum diastolic pressure and LV end-diastolic pressure was counted every minute. The compound [III] (0.1 mg/kg/min) of the present invention or PSS was infused at 16.6 μL/min for 10 minutes in the test and control groups, respectively.
LV minimum diastolic pressure and LV end-diastolic pressure was counted every minute for 20 heart beats before and after administration of the compound. […] Data is shown as mean and standard deviation.

[2] = system: left anterior descending coronary artery of porcine heart; assay: Coronary relaxation of KCl-contracted porcine coronary artery strip (organ bath); details: Sus scrofa, read-out: concentration inducing 50% of relaxation (EC50%)
Method: Porcine heart was purchased without regard of gender. The heart was carried in steep, cool Krebs-Henseleit solution, filled with 95% bubbling oxygen (O2) gas and bicarbonate (CO2) and the left anterior descending coronary artery of 2.5-3 mm diameter was removed. The artery was steeped in the same nutrition solution overnight in a refrigerator and the next day a specimen from a short strip removal in the endothelium (open ring) of width 3 mm was obtained. The specimen was hanged in 10 ml of the organ bath filled with Krebs-Henseleit solution, 95% bubbling oxygen (O2) and bicarbonate (CO2) at 37° C. One side was fixed and the other side was connected to the isometric transducer (T7-8-240, T7-30-240, Olientic) and the change of tension on the amplifier was used for tension recording. After confirming the state for 120 minutes under 1.5 g loading, KCl (40 mM) was added. When the contraction reached a maximum, KCl was washed out. This wash-out was repeated 4 times during the course of 15 minutes. After the stable contraction of KCl was obtained, KCl (30 mM) dissolved in saline was added. […] The Krebs-Henseleit solution without the compounds served as the control.

chronic infarct rat = assay: Norepinephrine-induced LV diastolic dysfunction in chronic infarct rat; type: in vivo
Description: Male Wistar rats were used. After induction of anesthesia with 3% isoflurane inhalation, a polyethylene tube was inserted into the trachea. Respiration was subsequently controlled with an artificial ventilator with maintenance of anesthesia using 1.7% isoflurane. The chest was opened at the left third intercostals space and the pericardial membrane was incised. The left anterior descending coronary artery (LAD) was completely ligated with silk string (6.0, Ethicon) in the infarction group. Following this procedure, the chest was immediately closed, the inserted tube in the trachea was removed, and subjects returned to the breeding room after arousal.
Two months after operation, animals were again anesthetized and intubated as described above. A micronanometer-tipped pressure catheter (2F, Millar Instruments) was inserted into the right common carotid artery into the left ventricle (LV) and a polyethylene catheter (SP10) for solution injection was inserted from the right femoral vein to infuse the physiological salt solution (PSS) or test compound solutions. After confirming stable hemodynamics for 10 minutes, 20 μg/kg/min of norepinephrine was infused for 30 minutes in the chronic infarction group. The invention compound [III] (0.1 mg/kg/min) and PSS were infused for 10 minutes after 20 minutes of administration of norepinephrine at 16.6 μL/min for test and control groups, respectively. LV minimum diastolic pressure and LV end-diastolic pressure was counted every minute for 20 heart beats. The area of myocardial infarction (infarction size) in rats was estimated using the modified method of Sandmann et al (J Cardiovasc Pharmacol 2000; 37; 64-77.) for administration of the compound of the present invention and PSS. That is, the infarct size (%) was estimated using the followed formula: […]
Data is shown as means and standard error. The following results are shown in Table 4 (control) and Table 5 (the compound), respectively.

Solubility in solvents = type: physicochemical
Description: The compound of the present invention, 3-4-benzylpiperidin-1-yl)propionyl-7-methoxy-2,3,4,5-tetrahydro-1,4-benzothiazepine-1-oxide, which is produced by an oxidation of the hydrochloride salt represented by formula [V] by the oxidant, isolated by silica gel chromatography using chloroform-methanol as a solvent, followed by removed the solvent from the chloroform-methanol solution by azeotropic distillation, and finally removed by the residual solvent in argon. The purity of compound presented by formula [III], thus obtained is 90% or higher, and a molecular weight (mw) of the compound is 440.61. […] The compound has stereoisomers in the amide form, is confirmed to exist at the rate of about 2:3 in of amide parts using H-NMR analysis at room temperature.

Male Wistar rats [3] = assay: Norepinephrine-induced hypertension in rats, LV pressure; type: in vivo, rat; details: under norepinephrine 20 μg/kg/min
Method: Male Wistar rats weighing 260 g were anesthetized with 3% isoflurane inhalation and respiration was subsequently controlled with an artificial ventilator using 1.7% isoflurane for maintained anesthetization. A micronanometer-tipped pressure catheter (2F, Millar Instruments) was inserted from the right common carotid artery into the left ventricle (LV) and a polyethylene catheter (SP 10) for solution injection was inserted from the right femoral vein and test solutions were injected. After confirming stable hemodynamics for 10 minutes, norepinephrine (20 μg/kg/min) was infused for 10 minutes followed by the infusion of the invention compound [III] (0.1 mg/kg/min) for 10 minutes. This invention compound [III] was infused three times with intervals of 10 minutes each. LV pressure was determined for 20 heart beats before and after administration. The infusion speed of each solution was 16.6 μL/min.

[4] = Stability of the compound at room temperature; type: physicochemical; details: exposure to oxygen, humidity, acid and alkali at room temperature
[5] = chronic infarct rat under norepinephrine 20 μg/kg/min, 0.1 mg/kg/min infused 10 minutes, before administration set at 100%, mean and standard error
[6] = chronic infarct rat, baseline before norepinephrine infusion
[7] = chronic infarct rat, norepinephrine 20 μg/kg/min infusion

Compound: COc1ccc2c(c1)CN(C(=O)CCN1CCC(Cc3ccccc3)CC1)CC[S+]2[O-] (stereo not drawn) [compound [III], 4-[3-(4-benzylpiperidin-1-yl)propionyl]-7-methoxy-2,3,4,5-tetrahydro-1,4-benzothiazepine-1-oxide]
- Heart rate after administration (Male Wistar rats [1]): 360.9±29.1 beat/min
- LV diastolic function (−dP/dt) after administration (Male Wistar rats [1]): −5982.6±520.1 mmHg/sec
- LV pressure after administration (Male Wistar rats [1]): 106.3±5.5 mmHg
- LV diastolic function (−dP/dt) before administration (Male Wistar rats [1]): −5631.4±395.9 mmHg/sec
- LV pressure before administration (Male Wistar rats [1]): 106.0±5.8 mmHg
- Heart rate before administration (Male Wistar rats [1]): 361.7±26.5 beat/min
- LV end-diastolic pressure after administration (normal rat): 78.4 ± 6.6%
- LV minimum diastolic pressure after administration (normal rat): 76.0 ± 5.2%
- EC50 [2]: 42 µM
- skin irritation (Skin irritation): irritating to the skin
- LV end-diastolic pressure after administration (chronic infarct rat; [5]): 78.4 ± 6.6%
- LV minimum diastolic pressure after administration (chronic infarct rat; [5]): 76.0 ± 5.2%
- solubility in solvents (Solubility in solvents): easily dissolved in ethanol and dimethysulfoxide (DMSO)
- LV pressure before administration (Male Wistar rats [3]; before compound infusion): 189.2±14.0 mmHg
- LV pressure after administration (Male Wistar rats [3]; compound 0.1 mg/kg/min for 10 minutes, infused three times): 180.3±14.9 mmHg
- stability [4]: stable against exposure of oxygen, humidity, acid and alkali at room temperature

Compound: COc1ccc2c(c1)CN(C(=O)CCN1CCC(Cc3ccc(O)cc3)CC1)CC[S+]2[O-] (stereo not drawn) [compound [IV], 4-{3-[4-(4-hydroxybenzyl)piperadin-1-yl]propionyl}-7-methoxy-2,3,4,5-tetrahydro-1,4-benzothiazepine-1-oxide]
- EC50 [2]: 100 µM

Compound: NC[C@H](O)c1ccc(O)c(O)c1 [Norepinephrine, norepinephrine]
- LV end-diastolic pressure before administration of Norepinephrine (chronic infarct rat; [6]): 6.5 ± 0.7 mmHg
- LV minimum diastolic pressure before administration of Norepinephrine (chronic infarct rat; [6]): 4.5 ± 0.8 mmHg
- LV end-diastolic pressure after administration of Norepinephrine (chronic infarct rat; [7]): 25.8 ± 1.1 mmHg
- LV minimum diastolic pressure after administration of Norepinephrine (chronic infarct rat; [7]): 18.5 ± 1.2 mmHg

Compound: COc1ccc2c(c1)CN(C(=O)CCN1CCC(Cc3ccccc3)CC1)CCS2 [compound [II] (R═H), 4-[3-(4-benzylpiperidin-1-yl)propionyl]-7-methoxy-2,3,4,5-tetrahydro-1,4-benzothiazepine, reference compound]
- Heart rate after administration (Male Wistar rats [1]): 320.2±24.2 beat/min
- LV diastolic function (−dP/dt) after administration (Male Wistar rats [1]): −5311.0±961.4 mmHg/sec
- LV pressure after administration (Male Wistar rats [1]): 100.8±6.0 mmHg
- LV diastolic function (−dP/dt) before administration (Male Wistar rats [1]): −5973.4±1121.3 mmHg/sec
- LV pressure before administration (Male Wistar rats [1]): 103.7±4.2 mmHg
- Heart rate before administration (Male Wistar rats [1]): 370.1±18.9 beat/min
